Test results reported in patent US20080139558A1, “QUINOLONES USEFUL AS INDUCIBLE NITRIC OXIDE SYNTHASE INHIBITORS” (KALYPSYS, INC., priority 2006, published 2008).

Target: T1, human iNOS (Homo sapiens, UniProt P35228)
T1 construct: expressed in transfected cells; host or cells: HEK293
Assay: DAN assay of nitric oxide production (hiNOS)
Assay type: cell-based
Settings: enzyme expressed in HEK293 cells transiently transfected with human iNOS
From the text: The source of nitric oxide synthase (NOS) enzyme can be generated in several ways including induction of endogenous iNOS using cytokines and/or lipopolysaccharide (LPS) in various cell types known in the art. Alternatively, the gene encoding the enzyme can be cloned and the enzyme can be generated in cells via heterologous expression from a transient or stable expression plasmid with suitable features for protein expression as are known in the art. Enzymatic activity (nitric oxide production) is calcium independent for iNOS, while the constitutive NOS isoforms, nNOS and eNOS, become active with the addition of various cofactors added to cellular media or extract as are well known in the art. Enzymes specified in Table 1 were expressed in HEK293 cells transiently transfected with human iNOS.
A major metabolic pathway for nitric oxide is to nitrate and nitrite, which are stable metabolites within tissue culture, tissue, plasma, and urine (S Moncada, A Higgs, N Eng J Med 329, 2002 (1993)).
The level of nitrate or nitrite in the specimen can be quantified by any method known in the art which provides adequate sensitivity and reproducibility. A variety of protocols have also been described for detecting and quantifying nitrite and nitrate levels in biological fluids by ion chromatography (e.g., A Everett et al., J. Chromatogr. 706, 437 (1995); J M Monaghan et al., J. Chromatogr. 770, 143 (1997)), high-performance liquid chromatography (e.g., M Kelm et al., Cardiovasc. Res. 41, 765 (1999)), and capillary electrophoresis (MA Friedberg et al., J. Chromatogr. 781, 491 (1997)). For example, 2,3-diaminonaphthalene reacts with the nitrosonium cation that forms spontaneously from NO to form the fluorescent product 1H-naphthotriazole. Using 2,3-diaminonaphthalene (“DAN”), researchers have developed a rapid, quantitative fluorometric assay that can detect from 10 nM to 10 μM nitrite and is compatible with a multi-well microplate format. […] DAN reacts with nitrite ion and gives fluorescent naphthotriazole (MC Carré et al., Analusis 27, 835-838 (1999)). Table 1 provides the test results of various compounds of the subject invention using the DAN assay.
A specimen can be processed prior to determination of nitrate or nitrite as required by the quantification method, or in order to improve the results, or for the convenience of the investigator. For example, processing can involve centrifuging, filtering, or homogenizing the sample. If the sample is whole blood, the blood can be centrifuged to remove cells and the nitrate or nitrite assay performed on the plasma or serum fraction. If the sample is tissue, the tissue can be dispersed or homogenized by any method known in the art prior to determination of nitrate or nitrite. It may be preferable to remove cells and other debris by centrifugation or another method and to determine the nitrate or nitrite level using only the fluid portion of the sample, or the extracellular fluid fraction of the sample. The sample can also be preserved for later determination, for example by freezing of urine or plasma samples. When appropriate, additives may be introduced into the specimen to preserve or improve its characteristics for use in the nitrate or nitrite assay.
The “level” of nitrate, nitrite, or other NO-related product usually refers to the concentration (in moles per liter, micromoles per liter, or other suitable units) of nitrate or nitrite in the specimen, or in the fluid portion of the specimen. However, other units of measure can also be used to express the level of nitrate or nitrite. For example, an absolute amount (in micrograms, milligrams, nanomoles, moles, or other suitable units) can be used, particularly if the amount refers back to a constant amount (e.g., grams, kilograms, milliliters, liters, or other suitable units) of the specimens under consideration. A number of commercially available kits can be used. […]

T1 sequence (P35228 whole entry): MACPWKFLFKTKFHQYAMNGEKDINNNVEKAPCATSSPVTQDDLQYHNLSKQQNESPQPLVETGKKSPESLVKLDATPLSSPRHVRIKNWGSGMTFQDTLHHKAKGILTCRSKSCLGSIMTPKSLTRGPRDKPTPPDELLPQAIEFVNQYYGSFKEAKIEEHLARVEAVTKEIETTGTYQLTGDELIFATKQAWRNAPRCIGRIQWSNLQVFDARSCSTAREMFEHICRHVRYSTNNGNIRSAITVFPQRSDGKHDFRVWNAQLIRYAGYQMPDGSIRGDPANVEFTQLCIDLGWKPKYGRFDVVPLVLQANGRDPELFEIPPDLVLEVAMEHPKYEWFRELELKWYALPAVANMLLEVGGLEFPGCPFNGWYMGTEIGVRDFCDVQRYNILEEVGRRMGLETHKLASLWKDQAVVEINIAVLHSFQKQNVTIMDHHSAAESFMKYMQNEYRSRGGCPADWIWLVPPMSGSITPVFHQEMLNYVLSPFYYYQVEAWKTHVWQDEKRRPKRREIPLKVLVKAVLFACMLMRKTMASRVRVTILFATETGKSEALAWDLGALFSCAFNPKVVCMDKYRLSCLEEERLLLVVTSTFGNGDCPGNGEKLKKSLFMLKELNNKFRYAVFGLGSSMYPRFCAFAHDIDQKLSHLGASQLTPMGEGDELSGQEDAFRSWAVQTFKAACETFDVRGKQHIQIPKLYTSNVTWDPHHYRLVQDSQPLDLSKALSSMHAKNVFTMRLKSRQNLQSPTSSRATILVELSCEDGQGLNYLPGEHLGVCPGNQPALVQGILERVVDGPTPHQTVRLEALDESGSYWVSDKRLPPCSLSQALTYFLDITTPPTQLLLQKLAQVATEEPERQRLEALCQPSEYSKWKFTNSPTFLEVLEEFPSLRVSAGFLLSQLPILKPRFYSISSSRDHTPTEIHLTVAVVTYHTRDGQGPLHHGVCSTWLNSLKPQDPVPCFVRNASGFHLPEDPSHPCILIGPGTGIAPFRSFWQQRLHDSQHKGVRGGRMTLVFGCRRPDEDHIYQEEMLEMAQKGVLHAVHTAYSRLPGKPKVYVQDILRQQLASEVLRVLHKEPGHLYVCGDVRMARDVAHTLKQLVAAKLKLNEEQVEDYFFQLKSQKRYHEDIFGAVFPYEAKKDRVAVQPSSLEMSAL

Question: With `O=C(c1cscn1)N(Cc1cc(=O)[nH]c2ccccc12)c1ccccc1` [Example 28, N-((2-Oxo-1,2-dihydroquinolin-4-yl)methyl)-N-phenylthiazole-4-carboxamide] as the compound, how does the EC50 read?
Answer: Its EC50 is over 5 µM.

Question: How did the EC50 turn out when `Cc1ncsc1C(=O)N(Cc1cc(=O)[nH]c2ccccc12)c1ccccc1` [Example 29, 4-Methyl-N-((2-oxo-1,2-dihydroquinolin-4-yl)methyl)-N-phenylthiazole-5-carboxamide] was run?
Answer: The EC50 was over 5 µM.

Question: With `Cc1noc(C)c1C(=O)N(Cc1cc(=O)[nH]c2ccccc12)c1ccccc1` [Example 30, 3,5-Dimethyl-N-((2-oxo-1,2-dihydroquinolin-4-yl)methyl)-N-phenylisoxazole-4-carboxamide] as the compound, how does the EC50 read?
Answer: Its EC50 is over 5 µM.

Question: With `Cc1oncc1C(=O)N(Cc1cc(=O)[nH]c2ccccc12)c1ccccc1` [Example 31, 5-Methyl-N-((2-oxo-1,2-dihydroquinolin-4-yl)methyl)-N-phenylisoxazole-4-carboxamide] as the compound, how does the EC50 read?
Answer: Its EC50 is over 5 µM.

Question: Which EC50 does the source give for `O=C(c1ccccn1)N(Cc1cc(=O)[nH]c2ccccc12)c1ccccc1` [Example 32, N-((2-Oxo-1,2-dihydroquinolin-4-yl)methyl)-N-phenylpicolinamide] here?
Answer: Its EC50 is over 5 µM.

Question: How did the EC50 turn out when `O=C(c1cccnc1)N(Cc1cc(=O)[nH]c2ccccc12)c1ccccc1` [Example 33, N-((2-Oxo-1,2-dihydroquinolin-4-yl)methyl)-N-phenylnicotinamide] was run?
Answer: Its EC50 is over 5 µM.

Question: Which EC50 does the source give for `O=C(c1ccncc1)N(Cc1cc(=O)[nH]c2ccccc12)c1ccccc1` [Example 34, N-((2-Oxo-1,2-dihydroquinolin-4-yl)methyl)-N-phenylisonicotinamide] here?
Answer: Its EC50 is over 5 µM.

Question: `Cc1cnc(C(=O)N(Cc2cc(=O)[nH]c3ccccc23)c2ccccc2)cn1` [Example 35, 5-Methyl-N-((2-oxo-1,2-dihydroquinolin-4-yl)methyl)-N-phenylpyrazine-2-carboxamide] was tested. Which EC50 did it give?
Answer: The EC50 was at most 5 µM.

Question: How did the EC50 turn out when `O=C(c1cnccn1)N(Cc1cc(=O)[nH]c2ccccc12)c1ccccc1` [Example 36, N-((2-Oxo-1,2-dihydroquinolin-4-yl)methyl)-N-phenylpyrazine-2-carboxamide] was run?
Answer: The EC50 was over 5 µM.

Question: `Cc1ncccc1C(=O)N(Cc1cc(=O)[nH]c2ccccc12)c1ccccc1` [Example 37, 2-Methyl-N-((2-oxo-1,2-dihydroquinolin-4-yl)methyl)-N-phenylnicotinamide] was tested. Which EC50 did it give?
Answer: Its EC50 is at most 5 µM.

Question: For `Cc1cccnc1C(=O)N(Cc1cc(=O)[nH]c2ccccc12)c1ccccc1` [Example 38, 3-Methyl-N-((2-oxo-1,2-dihydroquinolin-4-yl)methyl)-N-phenylpicolinamide], which EC50 is on record?
Answer: The EC50 was over 5 µM.

Question: Which EC50 does the source give for `Cc1ncsc1C(=O)N(Cc1cc(=O)[nH]c2ccccc12)c1ccc(F)c(Cl)c1` [Example 39, N-(3-Chloro-4-fluorophenyl)-4-methyl-N-((2-oxo-1,2-dihydroquinolin-4-yl)methyl)thiazole-5-carboxamide] here?
Answer: The EC50 was over 5 µM.

Question: For `Cc1ncsc1C(=O)N(Cc1cc(=O)[nH]c2ccccc12)c1cccc(C(F)(F)F)c1` [Example 40, 4-Methyl-N-((2-oxo-1,2-dihydroquinolin-4-yl)methyl)-N-(3-(trifluoromethyl)phenyl)thiazole-5-carboxamide], which EC50 is on record?
Answer: Its EC50 is over 5 µM.

Question: How did the EC50 turn out when `Cc1ncsc1C(=O)N(Cc1cc(=O)[nH]c2ccccc12)c1ccc(F)c(F)c1` [Example 41] was run?
Answer: The EC50 was over 5 µM.

Question: `Cc1ncsc1S(=O)(=O)N(Cc1cc(=O)[nH]c2c(F)cccc12)c1cccc(Cl)c1` [Example 42, N-(3-Chlorophenyl)-N-((8-fluoro-2-oxo-1,2-dihydroquinolin-4-yl)methyl)-4-methylthiazole-5-sulfonamide] was tested. Which EC50 did it give?
Answer: Its EC50 is at most 5 µM.

Question: How did the EC50 turn out when `Cc1ncsc1C(=O)N(Cc1cc(=O)[nH]c2c(F)cccc12)c1cccc(Cl)c1` [Example 43, N-(3-Chlorophenyl)-N-((8-fluoro-2-oxo-1,2-dihydroquinolin-4-yl)methyl)-4-methylthiazole-5-carboxamide] was run?
Answer: Its EC50 is over 5 µM.

Question: Which EC50 does the source give for `O=C(c1cncs1)N(Cc1cc(=O)[nH]c2c(F)cccc12)c1cccc(Cl)c1` [Example 44, N-(3-Chlorophenyl)-N-((8-fluoro-2-oxo-1,2-dihydroquinolin-4-yl)methyl)thiazole-5-carboxamide] here?
Answer: Its EC50 is over 5 µM.

Question: `Cc1ncsc1CN(Cc1cc(=O)[nH]c2c(F)cccc12)c1cccc(Cl)c1` [Example 45, 4-(((3-Chlorophenyl)((4-methylthiazol-5-yl)methyl)amino)methyl)-8-fluoroquinolin-2(1H)-one] was tested. Which EC50 did it give?
Answer: The EC50 was at most 5 µM.

Question: `Cn1cnc(C(=O)N(Cc2cc(=O)[nH]c3c(F)cccc23)c2cccc(Cl)c2)c1` [Example 46, N-(3-Chlorophenyl)-N-((8-fluoro-2-oxo-1,2-dihydroquinolin-4-yl)methyl)-1-methyl-1H-imidazole-4-carboxamide] was tested. Which EC50 did it give?
Answer: Its EC50 is over 5 µM.

Question: `Cn1ccnc1C(=O)N(Cc1cc(=O)[nH]c2c(F)cccc12)c1cccc(Cl)c1` [Example 47, N-(3-Chlorophenyl)-N-((8-fluoro-2-oxo-1,2-dihydroquinolin-4-yl)methyl)-1-methyl-1H-imidazole-2-carboxamide] was tested. Which EC50 did it give?
Answer: Its EC50 is over 5 µM.

Question: With `Cn1cncc1C(=O)N(Cc1cc(=O)[nH]c2c(F)cccc12)c1cccc(Cl)c1` [Example 48, N-(3-Chlorophenyl)-N-((8-fluoro-2-oxo-1,2-dihydroquinolin-4-yl)methyl)-1-methyl-1H-imidazole-5-carboxamide] as the compound, how does the EC50 read?
Answer: The EC50 was over 5 µM.

Question: How did the EC50 turn out when `Cc1ncsc1C(=O)N(Cc1cc(=O)[nH]c2c(Cl)cccc12)c1cccc(Cl)c1` [Example 49, N-((8-Chloro-2-oxo-1,2-dihydroquinolin-4-yl)methyl)-N-(3-chlorophenyl)-4-methylthiazole-5-carboxamide] was run?
Answer: Its EC50 is over 5 µM.

Question: `Cc1ncsc1C(=O)N(Cc1cc(=O)[nH]c2c(F)ccc(C)c12)c1cccc(Cl)c1` [Example 50, N-(3-Chlorophenyl)-N-((8-fluoro-5-methyl-2-oxo-1,2-dihydroquinolin-4-yl)methyl)-4-methylthiazole-5-carboxamide] was tested. Which EC50 did it give?
Answer: Its EC50 is over 5 µM.

Question: How did the EC50 turn out when `Cc1ncsc1C(=O)N(Cc1cc(=O)[nH]c2cc(F)ccc12)c1cccc(Cl)c1` [Example 51, N-(3-Chlorophenyl)-N-((7-fluoro-2-oxo-1,2-dihydroquinolin-4-yl)methyl)-4-methylthiazole-5-carboxamide] was run?
Answer: The EC50 was over 5 µM.

Question: With `Cc1ncsc1C(=O)N(Cc1cc(=O)[nH]c2c(F)ccc(F)c12)c1cccc(Cl)c1` [Example 52, N-(3-Chlorophenyl)-N-((5,8-difluoro-2-oxo-1,2-dihydroquinolin-4-yl)methyl)-4-methylthiazole-5-carboxamide] as the compound, how does the EC50 read?
Answer: Its EC50 is over 5 µM.

Question: Which EC50 does the source give for `Cc1ncsc1C(=O)N(Cc1cc(=O)[nH]c2c(F)c(F)ccc12)c1cccc(Cl)c1` [Example 53, N-(3-Chlorophenyl)-N-((7,8-difluoro-2-oxo-1,2-dihydroquinolin-4-yl)methyl)-4-methylthiazole-5-carboxamide] here?
Answer: The EC50 was at most 5 µM.

Question: Which EC50 does the source give for `O=C(c1ccccc1F)N(Cc1cc(=O)[nH]c2c(F)cccc12)c1cccc(Cl)c1` [Example 54, N-(3-Chlorophenyl)-2-fluoro-N-((8-fluoro-2-oxo-1,2-dihydroquinolin-4-yl)methyl)benzamide] here?
Answer: The EC50 was over 5 µM.

Question: `O=C(c1cccc(F)c1)N(Cc1cc(=O)[nH]c2c(F)cccc12)c1cccc(Cl)c1` [Example 55, N-(3-Chlorophenyl)-3-fluoro-N-((8-fluoro-2-oxo-1,2-dihydroquinolin-4-yl)methyl)benzamide] was tested. Which EC50 did it give?
Answer: Its EC50 is over 5 µM.

Question: `O=C(c1ccc(F)cc1)N(Cc1cc(=O)[nH]c2c(F)cccc12)c1cccc(Cl)c1` [Example 56, N-(3-Chlorophenyl)-4-fluoro-N-((8-fluoro-2-oxo-1,2-dihydroquinolin-4-yl)methyl)benzamide] was tested. Which EC50 did it give?
Answer: Its EC50 is over 5 µM.

Question: For `Cc1ccccc1C(=O)N(Cc1cc(=O)[nH]c2c(F)cccc12)c1cccc(Cl)c1` [Example 57, N-(3-Chlorophenyl)-N-((8-fluoro-2-oxo-1,2-dihydroquinolin-4-yl)methyl)-2-methylbenzamide], which EC50 is on record?
Answer: The EC50 was over 5 µM.
